Data published in PubChem BioAssay (NCI).
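GI50 = concentration required for 50% inhibition of growth. Definition used: TGI = concentration required for complete inhibition of growth.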

Legend:
Assay in all cases: inhibition of tumour cell growth, NCI panel, 384-well format
HOP-92 NSCLC = tested on: HOP-92 NSCLC
SK-MEL-5 melanoma = tested on: SK-MEL-5 melanoma
MALME-3M melanoma = tested on: MALME-3M melanoma
MDA-MB-468 breast = tested on: MDA-MB-468 breast
HOP-62 NSCLC = tested on: HOP-62 NSCLC
NCI-H522 lung = tested on: NCI-H522 lung
SN12C renal = tested on: SN12C renal
HT29 colon = tested on: HT29 colon
DU-145 prostate = tested on: DU-145 prostate
UACC-257 melanoma = tested on: UACC-257 melanoma
K-562 leukemia = tested on: K-562 leukemia
ACHN renal = tested on: ACHN renal
MDA-MB-435 melanoma = tested on: MDA-MB-435 melanoma
A549 NSCLC = tested on: A549 NSCLC
RXF 393 renal = tested on: RXF 393 renal
NCI-H23 lung = tested on: NCI-H23 lung
KM12 colon = tested on: KM12 colon
HCC-2998 colon = tested on: HCC-2998 colon
COLO 205 colon = tested on: COLO 205 colon
MDA-MB-231 breast = tested on: MDA-MB-231 breast
MCF7 breast = tested on: MCF7 breast
UO-31 renal = tested on: UO-31 renal
NCI/ADR-RES ovarian = tested on: NCI/ADR-RES ovarian
U251 glioblastoma = tested on: U251 glioblastoma
OVCAR-8 ovarian = tested on: OVCAR-8 ovarian
SK-MEL-2 melanoma = tested on: SK-MEL-2 melanoma
OVCAR-3 ovarian = tested on: OVCAR-3 ovarian
OVCAR-5 ovarian = tested on: OVCAR-5 ovarian
HS 578T breast = tested on: HS 578T breast
RPMI-8226 leukemia = tested on: RPMI-8226 leukemia
SF-295 CNS = tested on: SF-295 CNS
IGROV1 ovarian = tested on: IGROV1 ovarian
SK-MEL-28 melanoma = tested on: SK-MEL-28 melanoma
CCRF-CEM leukemia = tested on: CCRF-CEM leukemia
UACC-62 melanoma = tested on: UACC-62 melanoma
NCI-H460 NSCLC = tested on: NCI-H460 NSCLC
HCT-116 colon = tested on: HCT-116 colon
BT-549 breast = tested on: BT-549 breast
M14 melanoma = tested on: M14 melanoma
HCT-15 colon = tested on: HCT-15 colon
SNB-75 CNS = tested on: SNB-75 CNS
SF-268 CNS = tested on: SF-268 CNS
HL-60(TB) leukemia = tested on: HL-60(TB) leukemia
CAKI-1 renal = tested on: CAKI-1 renal
NCI-H322M lung = tested on: NCI-H322M lung
EKVX NSCLC = tested on: EKVX NSCLC
SK-OV-3 ovarian = tested on: SK-OV-3 ovarian

CC(C)(O)CNc1nc(Nc2ccnc(C(F)(F)F)c2)nc(-c2cccc(C(F)(F)F)n2)n1
GI50 (HOP-92 NSCLC): 19.3 µM | TGI (HOP-92 NSCLC): 37.7 µM | GI50 (SK-MEL-5 melanoma): 13.8 µM | TGI (SK-MEL-5 melanoma): 26.8 µM | GI50 (MALME-3M melanoma): 18.4 µM | TGI (MALME-3M melanoma): 33.9 µM | GI50 (MDA-MB-468 breast): 20.3 µM | TGI (MDA-MB-468 breast): 35 µM | GI50 (HOP-62 NSCLC): 15.1 µM | TGI (HOP-62 NSCLC): 28.8 µM | GI50 (NCI-H522 lung): 17.5 µM | TGI (NCI-H522 lung): 35.4 µM | GI50 (SN12C renal): 19.8 µM | TGI (SN12C renal): 40.8 µM | GI50 (HT29 colon): 15.2 µM | TGI (HT29 colon): 29.6 µM | GI50 (DU-145 prostate): 16.3 µM | TGI (DU-145 prostate): 31.6 µM | GI50 (UACC-257 melanoma): 19.4 µM | TGI (UACC-257 melanoma): 33.8 µM | GI50 (K-562 leukemia): 14.7 µM | TGI (K-562 leukemia): 28.7 µM | GI50 (ACHN renal): 20.9 µM | TGI (ACHN renal): 40.5 µM | GI50 (MDA-MB-435 melanoma): 19.9 µM | TGI (MDA-MB-435 melanoma): 37.7 µM | GI50 (A549 NSCLC): 17.3 µM | TGI (A549 NSCLC): 35.4 µM | GI50 (RXF 393 renal): 12.3 µM | TGI (RXF 393 renal): 27.5 µM | GI50 (NCI-H23 lung): 18.7 µM | TGI (NCI-H23 lung): 35.6 µM | GI50 (KM12 colon): 17.9 µM | TGI (KM12 colon): 34.8 µM | GI50 (HCC-2998 colon): 16.3 µM | TGI (HCC-2998 colon): 30.4 µM | GI50 (COLO 205 colon): 18.5 µM | TGI (COLO 205 colon): 34.8 µM | GI50 (MDA-MB-231 breast): 18.7 µM | TGI (MDA-MB-231 breast): 34.5 µM | GI50 (MCF7 breast): 15.9 µM | TGI (MCF7 breast): 30.5 µM | GI50 (UO-31 renal): 21.1 µM | TGI (UO-31 renal): 40.9 µM | GI50 (NCI/ADR-RES ovarian): 13.9 µM | TGI (NCI/ADR-RES ovarian): 27.5 µM | GI50 (U251 glioblastoma): 18.8 µM | TGI (U251 glioblastoma): 38.7 µM | GI50 (OVCAR-8 ovarian): 17.4 µM | TGI (OVCAR-8 ovarian): 38.3 µM | GI50 (SK-MEL-2 melanoma): 0.265 µM | TGI (SK-MEL-2 melanoma): 1.17 µM | GI50 (OVCAR-3 ovarian): 17.6 µM | TGI (OVCAR-3 ovarian): 32.9 µM | GI50 (OVCAR-5 ovarian): 27.3 µM | TGI (OVCAR-5 ovarian): 73.5 µM | GI50 (HS 578T breast): 14.6 µM | TGI (HS 578T breast): 29.5 µM | GI50 (RPMI-8226 leukemia): 18.7 µM | TGI (RPMI-8226 leukemia): 32.9 µM | GI50 (SF-295 CNS): 16 µM | TGI (SF-295 CNS): 29.8 µM | GI50 (IGROV1 ovarian): 18.6 µM | TGI (IGROV1 ovarian): 37.4 µM | GI50 (SK-MEL-28 melanoma): 16.9 µM | TGI (SK-MEL-28 melanoma): 31 µM | GI50 (CCRF-CEM leukemia): 14.4 µM | TGI (CCRF-CEM leukemia): 28.1 µM | GI50 (UACC-62 melanoma): 17.8 µM | TGI (UACC-62 melanoma): 31.8 µM | GI50 (NCI-H460 NSCLC): 17.5 µM | TGI (NCI-H460 NSCLC): 32.6 µM | GI50 (HCT-116 colon): 17.3 µM | TGI (HCT-116 colon): 33.2 µM | GI50 (BT-549 breast): 16 µM | TGI (BT-549 breast): 29.7 µM | GI50 (M14 melanoma): 19.8 µM | TGI (M14 melanoma): 35.2 µM | GI50 (HCT-15 colon): 13.5 µM | TGI (HCT-15 colon): 28.1 µM | GI50 (SNB-75 CNS): 18.8 µM | TGI (SNB-75 CNS): 37.2 µM | GI50 (SF-268 CNS): 20.2 µM | TGI (SF-268 CNS): 40.3 µM | GI50 (HL-60(TB) leukemia): 14.9 µM | TGI (HL-60(TB) leukemia): 28.3 µM | GI50 (CAKI-1 renal): 21.3 µM | TGI (CAKI-1 renal): 45.2 µM | GI50 (NCI-H322M lung): 16.1 µM | TGI (NCI-H322M lung): 31.4 µM | GI50 (EKVX NSCLC): 19 µM | TGI (EKVX NSCLC): 38.5 µM | GI50 (SK-OV-3 ovarian): 20.9 µM | TGI (SK-OV-3 ovarian): 40.9 µM
